# What was measured:
# human blood = test: Immunogram Analyzer run: effect of borate and aspirin on ROX/BOX of human blood; type: cell-based; conditions: for effect on ROX and BOX: compared to saline runs on a patient's blood; for BOX / ROX / ROXNO / ROXO2: human blood aged 5 days at room temperature, 0.10 ml blood, 0.9 ml saline
# Text: (§1) First, a testing apparatus having a sample well 10 or cell with a sensor or probe 20 and a reader/processor 30 is provided. […] The testing probes are inserted into the cell and the testing apparatus is calibrated so that the reading for levels of signaling materials is at zero. For example, a compound A, such as signaling material-free saline solution can be added to cell E derive an instrument baseline reading free of signaling material. Alternatively, a gas that is free of signaling material can be bubbled into the cell.
# Once a baseline showing a zero reading for signaling materials is established, an amount of blood D is added to cell E. This amount of blood D can be a small quantity, such as between about 0.02 mL and about 0.10 mL, of freshly drawn or frozen blood from a test individual or patient. For convenience, a 3.00 mL sample of anticoagulated blood may be frozen for later analysis. Very small samples of blood, such as less than about 0.02 mL, may also be analyzed.
# (§2) An initial reading is made of the levels of signaling materials in the sample prior to any stress being imposed. The mixture of compound A and blood D is then exposed to an initial stress B. A suitable stress would be physical shear stress produced by the administering syringe and/or a rotating magnetic stirrer. The sensor within the cell E then determines a drop in concentration of signaling materials, which is presumably brought on by the addition of stress B. Generally, this drop in signaling materials concentration yields the value of BOX, which is correlated to the ability of the system to incorporate signaling materials for transport. Following this drop, any rise in concentration of signaling materials yields the value of ROX, which correlates to the capacity of the system to provide a reservoir of signaling materials.
# The sensor of the testing apparatus preferably includes two or more sensors—one may be a membrane-based oxygen electrode 22, such as a polarographic Clark oxygen electrode, which measures O2, NO, H2S and other signaling materials that are unbound and can thus permeate through the membrane. In polarographic sensors, an anode, which is polarized, and a cathode are immersed in an electrolyte, into which oxygen and other signaling materials, permeates through the membrane. The anode/cathode pair causes current to flow in direct proportion to the amount of signaling material, such as oxygen, entering the system. The magnitude of the current thus directly correlates to the amount of signaling material entering the probe or sensor. It would be apparent that a membrane-based sensor necessarily depletes the sample of the material being tested as a result of consumption, yet the level of material consumed by the sensor is considered herein to be of an order of magnitude as to be insignificant for practical purposes.
# The other sensor 24 or probe may be an optical fluorescence dissolved oxygen analyzer, such as an Ocean Optics ruthenium-coated fiber optical light emitting diode (LED) probe, and can also include other suitable light based devices, including a laser (hereinafter referred to collectively as an “optical sensor”), which determines an amount of value for O2 and the bundled O2 reservoir (ROXO2). Other sensors, such as chip-based sensors, may also be used on the basis of price, convenience, and sensitivity to new signaling and reactive substances.
# As used herein, “ROXO2” is determinable O2 reservoir, and “ROXNO” is determinable NO reservoir. When bundled by the blood, and, in particular, the white blood cells, which are preparing signaling materials for use by the body, ROXO2 and ROXNO are unable to travel through the membrane sensor. However, after a BOX event occurs, increased levels of signaling materials in the sample, as determined by either the membrane or optical sensor, which tend to track each other, yield amounts of ROXO2 and ROXNO. […]
# bovine blood standard = type: cell-based
# Text: as §1
# as §2, with “Following this drop, any rise in concentration of signaling materials yields the value of ROX, which correlates to the capacity of the system to provide a reservoir of signaling materials.” left out
# The other sensor 24 or probe may be an optical fluorescence dissolved oxygen analyzer, such as an Ocean Optics ruthenium-coated fiber optical light emitting diode (LED) probe, and can also include other suitable light based devices, including a laser (hereinafter referred to collectively as an “optical sensor”), which determines an amount of value for O2 and the bundled O2 reservoir (ROXO2). […]
# Between these two or more sensors, therefore, the testing provides a reading for O2, NO, ROXO2, and NO that is in a bundled reservoir (ROXNO), as shown in FIGS. 6 and 7. […] Thus, the readings from the membrane probe and the optical probe together provide a total concentration of BOX and ROX (ROXO2+ROXNO) in the sample after exposure to physical stress B. Also, the slopes of the curves in FIGS. 6 and 7 yield valuable information with respect to the rates of reaction of these components. […]
Compound,effect on ROX and BOX (human blood),"release of NO (human blood; final run of FIG. 6, human blood)",BOX (human blood),ROX (human blood),ROXNO (human blood),ROXO2 (human blood),"rise of NO (human blood; in 2 seconds, human blood)",Increases ROXO2 by (bovine blood standard) [%],Lowers BOX by (bovine blood standard),Lowers ROXNO by (bovine blood standard) [%],effect on ROX and BOX (human blood; listed as borate eye wash)
"CC(=O)Oc1ccccc1C(=O)O [Aspirin, aspirin]",affect ROX and BOX,very rapid releases of NO,35% of air saturation,74% of air saturation,34% of air saturation,29% of air saturation,a 37% rise,,,,
acid-citrate-dextrose [ACD],,,,,,,,10,Lowers BOX by 8%,25,
borate,increases of BOX and ROX,,41% of air saturation,79% of air saturation,31% of air saturation,27% of air saturation,,,,,affect ROX and BOX
